Data from patent US8129396B2, “2-[1H-benzimidazol-2(3H)-ylidene]-2-(pyrimidin-2-yl)acetamides and 2-[benzothiazol-2(3H)-ylidene]-2-(pyrimidin-2-yl)acetamides as kinase inhibitors” (Telik, Inc., priority 2008, dated 2012).

Assays:
Aurora A kinase = biological target: T1, Aurora A kinase (Homo sapiens, UniProt O14965); test: Aurora A kinase assay (IMAP fluorescence polarization); assay type: biochemical; conditions: 10 μM ATP; rounded to 1 significant figure; read-out: Aur-A IC50
T1 construct: purchased Upstate Biotech
T1 sequence (O14965 1-403): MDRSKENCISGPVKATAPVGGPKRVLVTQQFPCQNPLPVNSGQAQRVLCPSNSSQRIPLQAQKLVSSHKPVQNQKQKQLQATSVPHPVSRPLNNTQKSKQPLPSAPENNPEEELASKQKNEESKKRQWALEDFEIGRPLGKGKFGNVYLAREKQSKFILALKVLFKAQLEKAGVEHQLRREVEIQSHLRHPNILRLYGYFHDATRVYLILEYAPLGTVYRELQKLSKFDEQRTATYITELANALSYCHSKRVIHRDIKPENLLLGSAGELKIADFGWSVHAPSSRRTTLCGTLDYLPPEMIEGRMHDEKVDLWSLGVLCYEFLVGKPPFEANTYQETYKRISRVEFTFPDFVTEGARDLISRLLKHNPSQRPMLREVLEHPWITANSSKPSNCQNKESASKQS
Method in brief: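 Compounds (eight 3-fold dilutions, 2.5% DMSO final) were preincubated 5 min at room temperature with Aurora A kinase in buffer with 1 mM DTT. Reaction with 100 nM fluorescein-PKAtide and 10 μM ATP ran 45 min at room temperature, then was stopped with IMAP binding reagent; fluorescence polarization was read after 30 min.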

Aurora B kinase = biological target: T2, Aurora B kinase (Homo sapiens, UniProt Q96GD4); test: Aurora B kinase assay (IMAP fluorescence polarization); assay type: biochemical; conditions: 10 μM ATP; rounded to 1 significant figure; read-out: Aur-B IC50
T2 construct: purchased BPS Bioscience
T2 sequence (Q96GD4 whole entry): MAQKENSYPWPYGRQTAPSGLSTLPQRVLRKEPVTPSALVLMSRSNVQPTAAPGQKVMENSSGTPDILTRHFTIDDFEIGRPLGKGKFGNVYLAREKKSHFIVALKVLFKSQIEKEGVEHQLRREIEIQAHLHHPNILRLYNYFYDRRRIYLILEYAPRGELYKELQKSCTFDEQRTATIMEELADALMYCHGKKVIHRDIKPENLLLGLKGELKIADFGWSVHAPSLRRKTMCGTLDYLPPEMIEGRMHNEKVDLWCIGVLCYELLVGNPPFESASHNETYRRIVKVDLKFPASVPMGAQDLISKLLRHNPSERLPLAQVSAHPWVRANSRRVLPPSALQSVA
Method in brief: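 Reaction started with 100 nM fluorescein-labelled PKAtide and 10 μM ATP, run 45 min at room temperature, then stopped with IMAP binding reagent (1:400). After 30 min shaking at room temperature, fluorescence polarization read; run in duplicate with solvent control.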

VEGFR2 kinase = biological target: T3, VEGFR2 kinase (Homo sapiens, UniProt P35968); test: VEGFR2 kinase assay; assay type: biochemical; conditions: 6 μM ATP, 1 mM MnCl2; rounded to 1 significant figure
T3 construct: purchased Cell Signaling Technology
T3 sequence (P35968 20-1356): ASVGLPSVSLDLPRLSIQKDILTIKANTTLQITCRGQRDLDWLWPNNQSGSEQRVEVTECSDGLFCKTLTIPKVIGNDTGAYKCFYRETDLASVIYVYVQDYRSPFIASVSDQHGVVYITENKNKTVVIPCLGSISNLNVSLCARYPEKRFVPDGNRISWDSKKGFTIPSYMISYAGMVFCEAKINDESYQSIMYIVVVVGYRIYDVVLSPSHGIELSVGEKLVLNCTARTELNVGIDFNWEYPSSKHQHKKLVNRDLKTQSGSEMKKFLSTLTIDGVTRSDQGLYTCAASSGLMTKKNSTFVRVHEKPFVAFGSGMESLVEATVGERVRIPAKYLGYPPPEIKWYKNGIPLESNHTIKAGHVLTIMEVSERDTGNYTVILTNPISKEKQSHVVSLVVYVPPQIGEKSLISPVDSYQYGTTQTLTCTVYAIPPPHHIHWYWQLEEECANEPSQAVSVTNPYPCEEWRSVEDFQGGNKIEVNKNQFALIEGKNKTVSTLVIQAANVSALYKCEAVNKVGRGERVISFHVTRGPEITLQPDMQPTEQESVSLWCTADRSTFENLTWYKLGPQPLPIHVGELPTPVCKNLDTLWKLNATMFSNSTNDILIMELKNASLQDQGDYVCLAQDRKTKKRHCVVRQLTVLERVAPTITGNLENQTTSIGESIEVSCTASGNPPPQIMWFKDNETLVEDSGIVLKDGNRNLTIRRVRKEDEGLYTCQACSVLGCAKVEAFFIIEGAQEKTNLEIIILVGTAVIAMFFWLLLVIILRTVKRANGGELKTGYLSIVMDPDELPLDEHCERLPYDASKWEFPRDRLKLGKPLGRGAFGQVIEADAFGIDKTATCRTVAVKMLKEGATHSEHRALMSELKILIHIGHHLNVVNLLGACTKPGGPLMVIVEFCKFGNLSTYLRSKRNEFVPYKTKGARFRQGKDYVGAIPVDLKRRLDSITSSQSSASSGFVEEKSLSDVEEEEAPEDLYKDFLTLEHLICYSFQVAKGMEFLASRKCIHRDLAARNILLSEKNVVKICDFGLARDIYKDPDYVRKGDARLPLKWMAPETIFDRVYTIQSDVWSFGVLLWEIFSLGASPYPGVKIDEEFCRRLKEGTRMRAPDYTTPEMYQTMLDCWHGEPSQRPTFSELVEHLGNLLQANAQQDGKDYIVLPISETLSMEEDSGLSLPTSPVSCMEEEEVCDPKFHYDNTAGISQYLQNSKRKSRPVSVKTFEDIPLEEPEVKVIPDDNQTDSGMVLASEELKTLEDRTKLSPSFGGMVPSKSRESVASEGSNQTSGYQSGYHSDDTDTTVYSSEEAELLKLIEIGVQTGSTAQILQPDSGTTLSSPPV
Method in brief: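 VEGFR2 phosphorylates CSKtide with 6 μM ATP and 1 mM MnCl2 for 1 hr, otherwise following the Aurora A kinase protocol. Detection by IMAP fluorescence polarization, binding reagent diluted 1:1200 in 1:1 binding buffer A/B. Run in duplicate with solvent control.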

p-H3 in HCT116 cells = test: Histone phosphorylation (p-H3) assay; assay type: cell-based; conditions: Homo sapiens, HCT-116; HCT116 cells, 4 hr incubation; read-out: p-H3 IC50
Method in brief: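 HCT116 cells (2.5×10^4/well, attached overnight) treated 4 h with 8-point 3-fold compound dilutions at 0.5% DMSO. Lysates dot-blotted onto nitrocellulose and probed for p-H3 with β-actin on the same membrane, fluorescent secondary antibodies, Odyssey scan; duplicate wells.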

[1] = test system: HCT116 (human colon carcinoma) cells; test: HCT116 cytotoxicity assay (CellTiter-Glo); assay type: cell-based; conditions: HCT-116, 72 h, cytotoxicity, three days culture, read-out: HCT116 IC50
[2] = test system: HL60 (human promyelocytic leukemia) cells; test: HL60 cytotoxicity assay (CellTiter-Glo); assay type: cell-based; conditions: HL-60, 72 h, cytotoxicity, three days culture, read-out: HL60 IC50
Description: (§1) The cell lines HL60 (human promyelocytic leukemia) and HCT116 (human colon carcinoma) were obtained from the American Type Culture Collection, Manassas, Va., U.S.A., and HUVEC-2 (human umbilical vein endothelial cells) from BD Biosciences, Bedford, Mass., U.S.A. Aurora A kinase was obtained from Upstate Biotech, Billerica, Mass., U.S.A.; Aurora B kinase from BPS Bioscience, San Diego, Calif., U.S.A.; and VEGFR2 kinase from Cell Signaling Technology, Danvers, Mass., U.S.A. The IMAP FP Screening Express kit was obtained from Molecular Devices, Sunnyvale, Calif., U.S.A.; the CellTiter-Glo assay kit from Promega Corporation, Madison, Wis., U.S.A.; and the Cellular DNA Cytometric Analysis Reagent Kit and BrdU labeling and detection kit from Roche Diagnostics Corporation, Indianapolis, Ind., U.S.A. All products were used in accordance with manufacturer's directions. Kinase inhibition assays and the histone phosphorylation (p-H3) assay were conducted in duplicate, and the cytotoxicity and HUVEC proliferation assays were conducted in triplicate, in each case with solvent control.
Log-phase cells were trypsinized, collected by centrifugation, and resuspended in a small volume of fresh medium, and the density of viable cells was determined following Trypan Blue staining. Cells were diluted in fresh media (1×10^4 cells/mL for HL60 and 4×10^4 cells/mL for HCT116 cells), the test compounds (concentrations between 0.1 μM and 200 μM, dissolved in DMSO, 50 μL) added immediately after dilution to achieve a final DMSO concentration of 0.5%, then the suspensions added at 150 μL/well to 96-well plates, and incubated overnight to allow attachment in the case of adherent cells. The cells were cultured for three days (about three doubling times). The cells were then collected by centrifugation, and 100 μL of the culture supernatant was replaced by the CellTiter-Glo reagent. After incubation for 15 minutes at room temperature, the plate was read with a luminometer.

[3] = test system: HUVEC-2 (human umbilical vein endothelial cells); test: HUVEC VEGF-dependent proliferation assay (BrdU); assay type: cell-based; conditions: VEGF (25 ng/mL)-dependent proliferation, read-out: HUVEC IC50
Description: as §1
HUVEC-2 cells were seeded at 10^4 cells/well in a 96-well plate coated with 0.1% gelatin in complete medium. […] The compounds were serially diluted in DMSO, and added to the cells at 0.5% DMSO final concentration. After 2 hr, VEGF (25 ng/mL) was added; and after a further day, 5-bromo-2-deoxyuridine (BrdU, 10 μM) was added to label proliferating cells, and the cells incubated for another day. The plates were then processed using the Roche BrdU labeling and detection kit, and the VEGF-dependent antiproliferative activity of the compounds determined.

| SMILES | IC50 (Aurora A kinase) [µM] | IC50 (Aurora B kinase) [µM] | IC50 (VEGFR2 kinase) [µM] | IC50 (p-H3 in HCT116 cells) [µM] | IC50 [1] [µM] | IC50 [2] [µM] | IC50 [3] [µM] |
| --- | --- | --- | --- | --- | --- | --- | --- |
| NC(=O)C(=C1Nc2ccccc2S1)c1ncc(C(=O)O)c(C(F)(F)F)n1 (single isomer, unassigned) [Compound 5A, 2-[benzothiazol-2(3H)-ylidene]-2-(5-carboxy-4-trifluoromethylpyrimidin-2-yl)acetamide] | 0.02 | 0.008 | 0.02 | 3 | 10 | > 10 |  |
| COc1ccnc(C(C(N)=O)=C2Nc3ccccc3N2)n1 [Compound 17A] | 0.3 | 0.03 | 0.001 | 0.6 | 5 | 5 |  |
| NC(=O)/C(=C1\Nc2ccc(CCc3cccnc3)cc2S1)c1nccc(C(F)(F)F)n1 [Compound 99A] | 0.02 | 0.007 | 0.1 | 1 | 3 | 2 |  |
| NC(=O)/C(=C1\Nc2cc(F)c(Cl)cc2N1)c1nccc(C(F)(F)F)n1 [Compound 37A] | 0.03 | 0.02 | 0.4 | 0.5 | 2 | 4 |  |
| NC(=O)/C(=C1\Nc2ccc(-c3cccnc3)cc2S1)c1nccc(C(F)(F)F)n1 [Compound 108A] | 0.01 | 0.01 | 0.06 | 3 | 2 | 2 |  |
| NC(=O)/C(=C1\Nc2ccc(CCN3CCC(F)(F)CC3)cc2S1)c1nccc(C(F)(F)F)n1 [Compound 104A] | 0.03 | 0.01 | 0.06 | 2 | 3 | 1 |  |
| NC(=O)/C(=C1\Nc2ccccc2S1)c1nc(C(F)(F)F)cc(C(F)(F)F)n1 [Compound 9A] | 0.01 | 0.007 | 0.06 | > 5 | > 20 | > 20 |  |
| CCN(C(=O)[C@@H]1CCCN1C)c1ccc2c(c1)N/C(=C(/C(N)=O)c1nccc(C(F)(F)F)n1)N2 [Compound 145A] | 0.02 | 0.004 | 0.01 | 0.08 | 0.2 | 0.4 |  |
| NC(=O)C(=C1Nc2ccc(N)cc2S1)c1nccc(C(F)(F)F)n1 (single isomer, unassigned) [Compound 32A, 2-[6-aminobenzothiazol-2(3H)-ylidene]-2-(4-trifluoromethylpyrimidin-2-yl)acetamide] | 0.01 | 0.01 | 0.04 | 0.4 | 5 | 3 |  |
| CCN(C(=O)CN1CCCCC1)c1ccc2c(c1)N/C(=C(/C(N)=O)c1nccc(C(F)(F)F)n1)N2 [Compound 146A] | 0.02 | 0.005 |  | 0.2 | 0.4 | 0.8 |  |
| NC(=O)/C(=C1\Nc2ccccc2S1)c1nc(-c2ccccn2)cc(C(F)(F)F)n1 [Compound 11A] | 0.04 | 0.01 |  | > 5 | 4 | 3 |  |
| Cn1ccnc1CCc1ccc2c(c1)S/C(=C(/C(N)=O)c1nccc(C(F)(F)F)n1)N2 [Compound 97A] | 0.02 | 0.007 |  | 0.1 | 0.6 | 1 |  |
| NC(=O)/C(=C1\Nc2ccc(N3CCC(N4CCOCC4)CC3)cc2S1)c1nccc(C(F)(F)F)n1 [Compound 122A] | 0.02 | 0.009 | 0.02 | 0.4 | 4 |  | 7 |
| CN1CCN(CCNC(=O)c2ccc3c(c2)S/C(=C(/C(N)=O)c2nccc(C(F)(F)F)n2)N3)CC1 [Compound 57A] | 0.02 | 0.02 | 0.01 | 0.1 | 0.1 |  | 0.02 |
| CN(C)CCOc1ccc2c(c1)S/C(=C(/C(N)=O)c1nccc(C(F)(F)F)n1)N2 [Compound 116A] | 0.04 | 0.008 | 0.009 | 0.08 | 0.4 |  | 0.1 |
| NC(=O)/C(=C1\Nc2ccc(C(=O)N3CCC(N)CC3)cc2N1)c1nccc(C(F)(F)F)n1 [Compound 66A] | 0.02 | 0.01 | 0.002 | 0.2 | 0.2 |  | 0.05 |

The next lines start with results.

| IC50 (Aurora A kinase) [µM] | IC50 (Aurora B kinase) [µM] | IC50 (VEGFR2 kinase) [µM] | IC50 (p-H3 in HCT116 cells) [µM] | SMILES | IC50 [1] [µM] | IC50 [2] [µM] | IC50 [3] [µM] |
| --- | --- | --- | --- | --- | --- | --- | --- |
| 0.004 | 0.009 | 0.003 | 0.1 | CCN(CCO)C(=O)c1ccc2c(c1)S/C(=C(/C(N)=O)c1nccc(C(F)(F)F)n1)N2 [Compound 31A] | 0.2 | 1 |  |
| 0.01 | 0.003 |  | 0.8 | NC(=O)/C(=C1\Nc2ccccc2S1)c1nc(N)cc(C(F)(F)F)n1 [Compound 13A] | 0.7 | 1 |  |
| 0.01 | 0.008 | 0.06 | 1 | Cc1cc(C(F)(F)F)nc(/C(C(N)=O)=C2/Nc3ccccc3S2)n1 [Compound 8A] | 2 | 0.2 |  |
| 0.002 | 0.003 | 0.006 | 0.04 | NC(=O)/C(=C1\Nc2ccc(CCn3ccnc3)cc2N1)c1nccc(C(F)(F)F)n1 [Compound 96A] | 0.3 | 0.1 |  |
| 0.007 | 0.006 | 0.04 | 0.1 | NC(=O)C(=C1Nc2ccccc2N1)c1nc(N)cc(C(F)(F)F)n1 [Compound 12A] | 0.4 | 0.2 |  |
| 0.008 | 0.008 | 0.04 | 0.5 | Cc1cc(C(F)(F)F)nc(C(C(N)=O)=C2Nc3ccccc3N2)n1 [Compound 138A] | 1 | 0.4 |  |
| 0.003 | 0.005 |  | 0.1 | CCN(CCCn1ccnc1)C(=O)c1ccc2c(c1)S/C(=C(/C(N)=O)c1nccc(C(F)(F)F)n1)N2 [Compound 49A] | 0.4 | 1 |  |
| 0.005 | 0.006 |  | 0.1 | Cc1cc(C(F)(F)F)nc(C(C(N)=O)=C2Nc3ccc(NC(=O)[C@@H]4CCCN4C)cc3N2)n1 (single isomer, unassigned) [Compound 144A] | 0.4 | 0.5 |  |
